Laboratory results taken from US4057684A, “Alkyl amino-glucopyranoside derivative and process for producing the same” (priority 1975, dated 1977).

Columns and labels:
bacteria = assay: antibacterial activity, broth dilution method
[1] = blood sugar level / diabetogenic activity; assay type: in vivo, rat (male Wister); conditions: rat, in vivo
[2] = peripheral white blood cell counts (bone marrow toxicity) and survival in normal male ICR mice; assay type: in vivo, mouse (ICR)
Experimental: Such peripheral white blood cell counts were performed as follows: Normal male ICR mice were used in groups of tens and the test compounds for treatment were made into their respective solutions. 2MCαG and 6MCαG were dissolved in physiological saline solutions, while CCNU and GCNU were suspended in 0.5% CMC aqueous solution and 50% PEG aqueous solution, respectively. A single administration at volume of 1 ml per 100 g body weight of animal (0.1 ml/10 g) was given intraperitoneally, and the peripheral white blood cell counts were performed 3, 8 and 15 days after administration of the test compounds.

[3] = system: adenocarcinoma-755 (Ca-755); assay: antitumor effect against adenocarcinoma-755 (Ca-755) implanted in mice; assay type: in vivo, mouse (BDF1)
Description: (§1) Results of pharmacological studies for amino-glucopyranoside [I] according to the invention are described below. The test compounds which were used included methyl N-carbamyl-N'-(2-chloroethyl)-N'-nitroso-2-amino-2-deoxy-α-D-glucopyranoside and methyl N-carbamyl-N'-(2-chloroethyl)-N'-nitroso-6-amino-6-deoxy-α-D-glucopyranoside (hereinafter abbreviated to 2MCαG and 6MCαG, respectively). The control compounds which were employed were 1-(2-chloroethyl)-3-cyclohexyl-1-nitrosoourea (hereinafter abbreviated to CCNU), which had been widely applied as a control compound in such a pharmacological test of the streptozotocin derivatives, and GCNU referred to previously. The tumor systems which were used were leukemia L-1210, Nakahara-Fukuoka sarcoma, adenocarcinoma-755, ascites sarcoma 180 and Ehrlich ascites carcinoma (hereinafter abbreviated to L-1210, NFS, Ca-755, S-180A and EAC, respectively), and the antitumor activities were determined by a procedure of the National Cancer Center, Tokyo (A. Hoshi et al.: Farumashia 9, 464(1973)). The test animals which were used were ICR and BDF1 mice.
(§2) ^a Treatment was initiated 24 hr after implantation of tumor (day 1):
(§3) D1~5 = qd, day 1~5; D1 = day 1 only.
(§4) ^b T/C is expressed as the tumor weight ratio in solid tumors or tota
(§5) packed cell volume ratio in ascites tumors of treated/control.

[4] = system: Nakahara-Fukuoka sarcoma (NFS); assay: antitumor effect against Nakahara-Fukuoka sarcoma (NFS) implanted in mice; assay type: in vivo, mouse (ICR)
Description: as §1, §2, §3, §4, §5

leukemia L-1210 = assay: increase in life span and survival of leukemia L-1210 implanted mice; assay type: in vivo, mouse (BDF1)
Description: as §1, §2, §3
^d % increase in life span (mean survival time) over controls.
^e 60 days survivors/total in treated group.

[5] = system: Ehrlich ascites carcinoma (EAC); assay: antitumor effect against Ehrlich ascites carcinoma (EAC) implanted in mice; assay type: in vivo, mouse (ICR); conditions: 8.5 mg/kg/day ip, 5 successive days, BDF1 mice
Description: as §1, §2, §3, §4, §5

[6] = system: ascites sarcoma 180 (S-180A); assay: antitumor effect against ascites sarcoma 180 (S-180A) implanted in mice; assay type: in vivo, mouse (ICR); conditions: 8.5 mg/kg/day ip, 5 successive days, BDF1 mice
Description: as §1, §2, §3, §4, §5

[7] = system: solid as well as ascites tumor systems; assay: antitumor activity in the tumor systems (overall); assay type: in vivo, mouse; conditions: for antitumor activity compared with the compounds of examples 1 and 4: mouse, in vivo; for antitumor activity compared with its α-anomer: vs α-anomer
Description: as §1

[8] = 8.5 mg/kg/day ip, 5 successive days, BDF1 mice
[9] = 10.0 mg/kg/day ip D1~5, BDF1 mice
[10] = 25.0 mg/kg/day ip D1~5, BDF1 mice
[11] = 12.0 mg/kg/day ip D1~5, ICR mice
[12] = 20.0 mg/kg/day ip D1~5, ICR mice

**Q.** With `CO[C@H]1O[C@H](CNC(=O)N(CCCl)N=O)[C@@H](O)[C@H](O)[C@H]1NC(=O)N(CCCl)N=O` [Example 3] as the compound, how does the antibacterial activity (bacteria) read?
**A.** Its antibacterial activity is “void of antibacterial activities”.

**Q.** What about the diabetogenic activity [1] of the same compound?
**A.** Its diabetogenic activity is “nondiabetogenic”.

**Q.** And the “bone marrow toxicity compared with CCNU” value ([2]; mouse, in vivo)?
**A.** Its value is “less than that of CCNU”.

**Q.** What about the “bone marrow toxicity compared with GCNU” value ([2]; mouse, in vivo) of the same compound?
**A.** The value was “comparable to GCNU”.

**Q.** What about the Activity [3, 8] of the same compound?
**A.** Its Activity is “++ or +++”.

**Q.** And the Activity [4, 8]?
**A.** The Activity was “++ or +++”.

**Q.** What about the ILS (leukemia L-1210; 2.2 mg/kg/day ip, 5 successive days) of the same compound?
**A.** The ILS was 400%.

**Q.** What about the ILS (leukemia L-1210; 4.5 mg/kg/day orally) of the same compound?
**A.** Its ILS is 370%.

**Q.** What about the 60-days survivors (leukemia L-1210; single ip, 7~15 mg/kg) of the same compound?
**A.** Its 60-days survivors is “all six animals tested survived”.

**Q.** And the ILS (leukemia L-1210; single ip, 7~15 mg/kg)?
**A.** Its ILS is 717%.

**Q.** What about the Activity [5] of the same compound?
**A.** The Activity was “++ or +++”.

**Q.** And the Activity [6]?
**A.** The Activity was “++ or +++”.

**Q.** What does the source list for `CCCCO[C@H]1O[C@H](CO)[C@@H](O)[C@H](O)[C@H]1NC(=O)N(CCCl)N=O` [Example 9 α-anomer, n-butyl N-carbamyl-N'-(2-chloroethyl)-N'-nitroso-2-amino-2-deoxy-α-D-glucopyranoside]?
**A.** antibacterial activity (bacteria): neither diabetogenic nor antibacterial activities; diabetogenic activity [1]: neither diabetogenic nor antibacterial activities; bone marrow toxicity compared with the compounds of examples 1 and 4 ([2]; mouse, in vivo): same low levels; antitumor activity compared with the compounds of examples 1 and 4 [7]: same level of anitumor activity

**Q.** Which antibacterial activity (bacteria) does the source give for `CO[C@@H]1O[C@H](CNC(=O)N(CCCl)N=O)[C@@H](O)[C@H](O)[C@H]1NC(=O)N(CCCl)N=O` [Example 7, methyl di-N,N'-[N-(2-chloroethyl)-N-nitroso-carbamyl]-2,6-di-amino-2,6-di-deoxy-3-D-glucopyranoside] here?
**A.** Its antibacterial activity is “neither diabetogenic nor antibacterial activities”.

**Q.** What about the diabetogenic activity [1] of the same compound?
**A.** Its diabetogenic activity is “neither diabetogenic nor antibacterial activities”.

**Q.** What about the “bone marrow toxicity compared with its α-anomer” value ([2]; vs compound of example 3) of the same compound?
**A.** Its value is “reduced bone marrow toxicities”.

**Q.** And the “antitumor activity compared with its α-anomer” value [7]?
**A.** Its value is 5~20%.

**Q.** For `CO[C@@H]1O[C@H](CNC(=O)N(CCCl)N=O)[C@@H](O)[C@H](O)[C@H]1O` [Example 12, methyl N-carbamyl-N'-(2-chloroethyl)-N'-nitroso-6-amino-6-deoxy-β-D-glucopyranoside], which antibacterial activity (bacteria) is on record?
**A.** The antibacterial activity was “neither diabetogenic nor antibacterial activities”.

**Q.** What about the diabetogenic activity [1] of the same compound?
**A.** The diabetogenic activity was “neither diabetogenic nor antibacterial activities”.

**Q.** What about the “reduced bone marrow toxicity compared with its α-anomer” value ([2]; vs α-anomer) of the same compound?
**A.** The value was 110~120%.

**Q.** What about the “antitumor activity compared with its α-anomer” value [7] of the same compound?
**A.** Its value is 110~120%.

**Q.** For `O=NN(CCCl)C(=O)NC1CCCCC1` [CCNU, 1-(2-chloroethyl)-3-cyclohexyl-1-nitrosoourea, reference compound], which “Death rate (death/used)” value ([2]; 20 mg/kg ip single) is on record?
**A.** Its value is 0/10.

**Q.** What about the “Average count of WBC” value ([2]; 20 mg/kg ip single, day 3) of the same compound?
**A.** Its value is 38.7±2.9 x 10^2 WBC/mm^3.

**Q.** What about the “Average count of WBC” value ([2]; 20 mg/kg ip single, day 8) of the same compound?
**A.** The value was 81.8±5.0 x 10^2 WBC/mm^3.

**Q.** What about the “Average count of WBC” value ([2]; 20 mg/kg ip single, day 15) of the same compound?
**A.** The value was 100.4±9.8 x 10^2 WBC/mm^3.

**Q.** And the “Death rate (death/used)” value ([2]; 40 mg/kg ip single)?
**A.** The value was 1/10.

**Q.** And the “Average count of WBC” value ([2]; 40 mg/kg ip single, day 3)?
**A.** Its value is 31.5±1.7 x 10^2 WBC/mm^3.

**Q.** What about the “Average count of WBC” value ([2]; 40 mg/kg ip single, day 8) of the same compound?
**A.** Its value is 59.0±6.0 x 10^2 WBC/mm^3.

**Q.** What about the “Average count of WBC” value ([2]; 40 mg/kg ip single, day 15) of the same compound?
**A.** Its value is 77.9±9.0 x 10^2 WBC/mm^3.

**Q.** What about the “Death rate (death/used)” value ([2]; 60 mg/kg ip single) of the same compound?
**A.** The value was 9/10.

**Q.** What about the “Average count of WBC” value ([2]; 60 mg/kg ip single, day 3) of the same compound?
**A.** The value was 27.9±3.7 x 10^2 WBC/mm^3.

**Q.** And the “Average count of WBC” value ([2]; 60 mg/kg ip single, day 8)?
**A.** Its value is 60.0 x 10^2 WBC/mm^3.

**Q.** And the “Average count of WBC” value ([2]; 60 mg/kg ip single, day 15)?
**A.** Its value is 36.0 x 10^2 WBC/mm^3.

**Q.** And the “Death rate (death/used)” value ([2]; 80 mg/kg ip single)?
**A.** Its value is 10/10.

**Q.** What about the “Average count of WBC” value ([2]; 80 mg/kg ip single, day 3) of the same compound?
**A.** The value was 20.4±2.5 x 10^2 WBC/mm^3.

**Q.** And the Activity [3, 9]?
**A.** The Activity was “+++ (20~0% = +++)”.

**Q.** What about the T/C [3, 9] of the same compound?
**A.** Its T/C is 15.0%.

**Q.** And the Activity [3, 10]?
**A.** The Activity was “Toxic”.

**Q.** What about the T/C [3, 10] of the same compound?
**A.** Its T/C is 1.1%.

**Q.** And the died/used [3, 10]?
**A.** Its died/used is 6/6.

**Q.** What about the Activity [4, 11] of the same compound?
**A.** The Activity was “+ (70~51% = +)”.

**Q.** What about the T/C [4, 11] of the same compound?
**A.** Its T/C is 57.5%.

**Q.** And the Activity [4, 12]?
**A.** The Activity was “++ (50~21% = ++)”.

**Q.** And the T/C [4, 12]?
**A.** The T/C was 48.3%.

**Q.** Which results are given for `CCCCO[C@@H]1O[C@H](CO)[C@@H](O)[C@H](O)[C@H]1NC(=O)N(CCCl)N=O` [Example 9 3-anomer, n-butyl N-carbamyl-N'-(2-chloroethyl)-N'-nitroso-2-amino-2-deoxy-3-D-glucopyranoside]?
**A.** antibacterial activity (bacteria): neither diabetogenic nor antibacterial activities; diabetogenic activity [1]: neither diabetogenic nor antibacterial activities; bone marrow toxicity compared with the compounds of examples 1 and 4 ([2]; mouse, in vivo): same low levels; antitumor activity compared with the compounds of examples 1 and 4 [7]: same level of anitumor activity
